Tests used:
[1] = tested on: cats; assay: Randomized, double-blind, placebo-controlled clinical study: transportation and veterinary visit anxiety and fear in cats; format: in vivo, cat; conditions: 5 mg/kg orally
Procedure: A randomized, double-blind, placebo-controlled parallel-group, multicenter clinical study was conducted for evaluating the efficacy and safety of pregabalin for the treatment or prevention of transportation and veterinary visit anxiety and fear in cats. Cats were randomised to receive either 5 mg/kg (n=108) of pregabalin or placebo (n=101) orally as a single dose approximately 90 minutes before transportation to the veterinary clinic.
The study had two primary efficacy variables. The first primary variable was the owner's assessment of the treatment effect based on the cat's stress, anxiety and/or fear during transportation in a car. The second primary variable was the investigator's assessment of the treatment effect based on the cat's stress, anxiety and/or fear during clinical examination at the veterinary clinic. Both were assessed using a numerical rating scale with the scores 1-5.

[2] = Water solubility of pregabalin as the function of pH at 5° C.; format: physicochemical
Procedure: Water solubility at 5° C. of pregabalin as such and with the addition of 2.0 mg/ml sodium benzoate was measured as the function of pH.

[3] = single dose approximately 90 minutes before transportation

CC(C)C[C@H](CN)CC(=O)O [pregabalin]
Ataxia and sedation ([1]; single dose): did not produce marked ataxia or excessive sedation
Investigator's assessment of treatment effect during clinical examination, % of cats, Score 1 Excellent [1, 3]: 14.3%
Investigator's assessment of treatment effect during clinical examination, % of cats, Score 2 Good [1, 3]: 41.0%
Investigator's assessment of treatment effect during clinical examination, % of cats, Score 3 Fair [1, 3]: 27.6%
Investigator's assessment of treatment effect during clinical examination, % of cats, Score 4 Poor [1, 3]: 10.5%
Investigator's assessment of treatment effect during clinical examination, % of cats, Score 5 Very poor [1, 3]: 6.7%
Owner's assessment of treatment effect during transportation, % of cats, Score 1 Excellent [1, 3]: 17.1%
Owner's assessment of treatment effect during transportation, % of cats, Score 2 Good [1, 3]: 34.3%
Owner's assessment of treatment effect during transportation, % of cats, Score 3 Fair [1, 3]: 23.8%
Owner's assessment of treatment effect during transportation, % of cats, Score 4 Poor [1, 3]: 14.3%
Owner's assessment of treatment effect during transportation, % of cats, Score 5 Very poor [1, 3]: 10.5%
Water solubility as the function of pH ([2]; pregabalin as such, when pH is lower than about 4.4, FIG. 1): increased significantly
Physical stability (precipitation of pregabalin) ([2]; with addition of 2.0 mg/ml sodium benzoate, FIG. 1): further improved the physical stability

— patent publication US12558331B2, “Pregabalin formulations and use thereof” (priority 2019, dated 2026)
